Data taken from article PMC7668297 (Journal of medicinal chemistry, 2020).
“Also recorded” adds a separate entry of the source.

Legend:
[1] = system: HeLa cells; assay: cells; conditions: Homo sapiens, 72 h, read-out: Cell proliferation IC50 ± SD
[2] = system: MCF7 cells; assay: cells; conditions: Homo sapiens, MCF7, 72 h, read-out: Cell proliferation IC50 ± SD
[3] = system: A375 cells; assay: cells; conditions: Homo sapiens, A-375, 72 h, read-out: Cell proliferation IC50 ± SD
[4] = system: A549 cells; assay: cells; conditions: Homo sapiens, A549, 72 h, read-out: Cell proliferation IC50 ± SD
[5] = system: G-361 cells; assay: cells; conditions: Homo sapiens, G-361, 72 h, read-out: Cell proliferation IC50 ± SD
[6] = biological target: T1, human topoIIα (Homo sapiens, UniProt P11388); assay: ATP hydrolysis; format: biochemical; conditions: 0-25 µM compound
[7] = biological target: hERG channel (Homo sapiens, UniProt Q12809); assay: Off-target safety profiling, hERG channel; conditions: tested at 2 µM
[8] = biological target: T1, human topoIIα; assay: DNA relaxation catalyzed by human topoIIα; format: biochemical; conditions: ratio of DNA relaxation IC50 values
[9] = biological target: T1, human topoIIα; assay: DNA cleavage assay; format: biochemical; conditions: 0-200 µM compound
[10] = system: relaxed pBR322 DNA; assay: DNA intercalation; format: binding; conditions: 0-25 µM compound
[11] = system: set of 47 proteins; assay: Off-target safety profiling; conditions: tested at 2 µM
[12] = mouse, in vivo, ip, 10 mg/kg
[13] = system: H2AX phosphorylation in HeLa cells; assay: Immunodetection of H2AX phosphorylation; format: cell-based, human; conditions: 90 minutes, at IC50 concentration
[14] = biological target: human topoIIβ (Homo sapiens, UniProt Q02880); assay: DNA relaxation catalyzed by human topoIIβ; format: biochemical

Row | SMILES | IC50 [1] [µM] | IC50 [2] [µM] | IC50 [3] [µM] | IC50 [4] [µM] | inhibition of topoIIα-catalyzed ATP hydrolysis ([6]; in the absence of DNA) | inhibition of topoIIα-catalyzed ATP hydrolysis ([6]; in the presence of DNA) | specificity for topoIIα over topoIIβ [8] | brain penetration [12] | IC50 [14] [µM] | IC50 [5] [µM] | activity vs the hERG channel [7] | ability to increase enzyme-mediated DNA cleavage [9] | DNA intercalation [10] | off-target activity (agonist and antagonist) on 47 proteins [11] | phosphorylation of H2AX (reporter of DNA damage) [13]
1 | CN(C)c1ccc(Nc2nc(-c3ccncc3)nc3c2CC(N)CC3)cc1 (stereo not shown) [Compound 14, N4-[4-(dimethylamino)phenyl]-2-(4-pyridyl)-5,6,7,8-tetrahydroquinazoline-4,6-diamine] | 38.2 ± 9.1 | 15.8 ± 1.3 | 12.6 ± 0.7 | 17.1 ± 8.7 | none | little ability to inhibit | ~ 50 fold | able to reach the brain | ~100 | 8.1 ± 2.9 | no noteworthy activity | no ability to increase levels of enzyme-mediated DNA cleavage | did not show this behavior; also recorded: does not intercalate into DNA | no noteworthy activity | did not induce the phosphorylation of H2AX
2 | N[C@@H]1CCc2nc(-c3ccncc3)nc(Nc3cccc(F)c3)c2C1 [Compound 4, (6S)-N4-(3-fluorophenyl)-2-(4-pyridyl)-5,6,7,8-tetrahydroquinazoline-4,6-diamine] | 21.8 ± 4.6 | 16.2 ± 2.6 | 10.8 ± 0.1 | 17.8 ± 0.6 | – | – | – | – | – | 1.8 ± 0.6 | – | – | – | – | –
3 | NC1CCc2nc(-c3ccncc3)nc(Nc3ccc(F)cc3)c2C1 (stereo not shown) [Compound 10, N4-(4-fluorophenyl)-2-(4-pyridyl)-5,6,7,8-tetrahydroquinazoline-4,6-diamine] | 20.8 ± 4.5 | 16 ± 0.5 | 12.3 ± 1.8 | 22.9 ± 6.5 | – | – | – | – | – | 3 ± 0.7 | – | – | – | – | –
4 | COc1cccc(Nc2nc(-c3ccncc3)nc3c2CC(N)CC3)c1 (stereo not shown) [Compound 11, N4-(3-methoxyphenyl)-2-(4-pyridyl)-5,6,7,8-tetrahydroquinazoline-4,6-diamine] | 17.2 ± 2.6 | 15.8 ± 1.4 | 15.1 ± 4.8 | 18 ± 0.1 | – | – | – | – | – | 6.6 ± 3.1 | – | – | – | – | –

These reach a lower IC50 [2]. Values come first.

Row | IC50 [1] [µM] | IC50 [2] [µM] | IC50 [3] [µM] | IC50 [4] [µM] | inhibition of topoIIα-catalyzed ATP hydrolysis ([6]; in the absence of DNA) | inhibition of topoIIα-catalyzed ATP hydrolysis ([6]; in the presence of DNA) | specificity for topoIIα over topoIIβ [8] | brain penetration [12] | IC50 [14] [µM] | SMILES | IC50 [5] [µM] | activity vs the hERG channel [7] | ability to increase enzyme-mediated DNA cleavage [9] | DNA intercalation [10] | off-target activity (agonist and antagonist) on 47 proteins [11] | phosphorylation of H2AX (reporter of DNA damage) [13]
5 | 17.1 ± 3.2 | 14.2 ± 2.5 | 10.7 ± 0.1 | 23.3 ± 2.3 | – | – | – | – | – | N[C@H]1CCc2nc(-c3ccncc3)nc(Nc3cccc(F)c3)c2C1 [Compound 3, (6R)-N4-(3-fluorophenyl)-2-(4-pyridyl)-5,6,7,8-tetrahydroquinazoline-4,6-diamine] | – | – | – | – | – | –
6 | 17 ± 1.9 | 13.9 ± 2.3 | 9.9 ± 0.1 | 19.4 ± 1.8 | – | – | – | – | – | NC1CCc2nc(-c3ccncc3)nc(Nc3cccc(F)c3)c2C1 (stereo not shown) [Compound 1, N4-(3-fluorophenyl)-2-(4-pyridyl)-5,6,7,8-tetrahydroquinazoline-4,6-diamine] | 1.4 ± 0.4 | – | – | – | – | –
7 | – | 8.9 ± 1.6 | 0.5 ± 0.1 | 2.4 ± 2 | – | – | – | – | – | COc1cc([C@@H]2c3cc4c(cc3[C@@H](O[C@@H]3O[C@@H]5CO[C@@H](C)O[C@H]5[C@H](O)[C@H]3O)[C@H]3COC(=O)[C@H]23)OCO4)cc(OC)c1O [Etoposide, etoposide, reference compound] | 3.8 ± 3 | – | – | – | – | –
